The text below walks through data of US20250230171A1 (MOMA Therapeutics, Inc., priority 2023, published 2025).

For one test, the system named is DLD1 BRCA2 (−/−) cells. Kind of test: 7-day cell viability assay (CellTiter-Glo), DLD1 BRCA2 (−/−). Type of test: cell-based, human. The conditions noted are these: n=2, read-out: Viability IC50 (uM) DLD1 BRCA2 null. A digest of the protocol:
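7-day growth assay in DLD1 cells with or without BRCA2; seeding densities chosen to keep log-linear growth. Compound: 10 uM top, 3-fold, 9 points. Endpoint: CTG ATP luminescence at RT.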

Test [1] concerns the target biotinylated Avi-POLθ[2-894] (Homo sapiens (Human), UniProt O75417). The test is described as follows: POLθ ATPase assay (ADP-Glo). The conditions noted are these: n=2, read-out: Biochemical ATPase ADPGlo IC50. On the technique in general: ADP-Glo turns the ADP formed in a reaction into a luminescent signal.
The test system of another test is DLD1 WT cells. Kind of test: 7-day cell viability assay (CellTiter-Glo), DLD1 parental (WT). In kind it is cell-based, human. The conditions noted are these: n=2. In general terms: Cellular ATP, detected with luciferase, serves as a proxy for viable cell number.
Setting [2] is: Homo sapiens, DLD-1, 168 h, 7-day viability.
The mark [3] stands for this setting: Homo sapiens, DLD-1, 168 h, 7-day CellTiter-Glo.

Read-outs that look alike come from different tables or passages of the source.

Chain of biotinylated Avi-POLθ[2-894] (O75417 2-894): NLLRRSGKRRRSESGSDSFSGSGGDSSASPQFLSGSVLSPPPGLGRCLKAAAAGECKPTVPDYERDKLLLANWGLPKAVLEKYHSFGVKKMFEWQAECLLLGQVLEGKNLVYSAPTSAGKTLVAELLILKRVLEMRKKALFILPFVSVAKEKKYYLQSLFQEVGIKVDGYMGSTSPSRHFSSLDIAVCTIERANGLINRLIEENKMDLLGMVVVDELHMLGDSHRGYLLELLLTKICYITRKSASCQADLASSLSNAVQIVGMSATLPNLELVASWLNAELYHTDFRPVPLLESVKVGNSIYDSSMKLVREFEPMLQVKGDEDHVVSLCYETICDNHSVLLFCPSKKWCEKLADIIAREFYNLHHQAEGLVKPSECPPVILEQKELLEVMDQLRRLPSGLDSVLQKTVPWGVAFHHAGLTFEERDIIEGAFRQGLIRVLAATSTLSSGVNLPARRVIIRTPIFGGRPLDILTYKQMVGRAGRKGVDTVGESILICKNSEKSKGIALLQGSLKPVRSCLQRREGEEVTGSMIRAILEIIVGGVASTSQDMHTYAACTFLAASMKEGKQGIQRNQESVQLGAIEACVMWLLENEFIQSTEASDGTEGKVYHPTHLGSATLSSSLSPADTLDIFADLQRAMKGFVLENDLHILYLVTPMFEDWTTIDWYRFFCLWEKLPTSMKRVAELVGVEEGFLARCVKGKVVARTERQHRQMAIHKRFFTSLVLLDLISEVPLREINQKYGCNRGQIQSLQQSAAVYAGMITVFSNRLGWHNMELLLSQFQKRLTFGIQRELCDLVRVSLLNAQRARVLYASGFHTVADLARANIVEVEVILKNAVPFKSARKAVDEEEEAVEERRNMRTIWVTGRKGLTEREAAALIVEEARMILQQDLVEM

In general, IC50 refers to the concentration at which inhibition is half-maximal. In the case of `CCNS(=O)(=O)N1Cc2nc(NC(=O)c3cnc(C)cc3-c3cc(C#N)ccc3OC)sc2C1` [Example 299], the half-maximal inhibitory concentration (IC50) in the test with DLD1 BRCA2 (−/−) cells (setting [2]) is 0.5 to 2 µM; in test [1], 1 to 15 nM; in the test with DLD1 WT cells (setting [2]), at least 10 µM.
As for `COc1cnc(Cl)cc1-c1cc(C)ncc1C(=O)Nc1nc2c(s1)CN(C(=O)c1cccc(Cl)c1OC)C2`, the IC50 lay within 0.001 to 0.1 µM in the test on DLD1 BRCA2 (−/−) cells (setting [3]); 1 to 15 nM in test [1] (POLθ ATPase, ADP-Glo); 5 to 10 µM in the test on DLD1 WT cells (setting [3]).
Consider `COc1ccccc1-c1cc(C)ncc1C(=O)Nc1nc2c(s1)CN(C(=O)c1ccccc1)CC2`, for which the half-inhibitory concentration (IC50) in the test with DLD1 BRCA2 (−/−) cells (setting [2]) is 0.5 to 2 µM; in test [1], at least 900 nM; with DLD1 WT cells (setting [2]), 0.5 to 2 µM.
For `COc1ccc(C#N)cc1-c1cc(C)ncc1C(=O)Nc1nc2c(s1)CN(C(=O)[C@H]1C[C@@H](OC)C1)C2`, the IC50 in the test on DLD1 BRCA2 (−/−) cells (setting [2]) was 0.5 to 2 µM; in test [1], 1 to 15 nM; with DLD1 WT cells (setting [2]), at least 10 µM.
Consider “4-(5-Cyano-2-methoxyphenyl)-N-(5-(4-(difluoromethyl)-2-methoxybenzoyl)-5,6-dihydro-4H-pyrrolo[3,4-d]thiazol-2-yl)-6-methylnicotinamide [Example 481]”, for which the concentration for half-maximal inhibition (IC50) is 0.001 to 0.1 µM in the test with DLD1 BRCA2 (−/−) cells (7-day CellTiter-Glo); 1 to 15 nM in test [1] (POLθ ATPase, ADP-Glo); at least 10 µM in the test on DLD1 WT cells (7-day CellTiter-Glo).
Turning to `COc1cnc(Cl)cc1-c1cc(C)ncc1C(=O)Nc1nc2c(s1)CN(C(=O)c1ncc(Br)cc1OC)C2`, the IC50 in the test on DLD1 BRCA2 (−/−) cells (setting [3]) is 0.1 to 0.25 µM; in test [1] (POLθ ATPase, ADP-Glo), 1 to 15 nM; in the test with DLD1 WT cells (setting [3]) it was at least 10 µM.
Regarding `COc1cnc(Cl)cc1-c1cc(C)ncc1C(=O)Nc1nc2c(s1)CN(C(=O)c1cc(C)nn1C(F)F)C2`, the concentration for half-maximal inhibition (IC50) in the test on DLD1 BRCA2 (−/−) cells (setting [2]) was 0.1 to 0.25 µM; in test [1], 1 to 15 nM; in the test on DLD1 WT cells (setting [2]), at least 10 µM.
Regarding `COc1nccc(C(=O)N2Cc3nc(NC(=O)c4cnc(C)cc4-c4cc(Cl)ncc4OC)sc3C2)n1`, the 50% inhibitory concentration (IC50) in the test with DLD1 BRCA2 (−/−) cells (setting [3]) was 0.001 to 0.1 µM; in test [1] (POLθ ATPase, ADP-Glo), 1 to 15 nM; with DLD1 WT cells (setting [3]) it was at least 10 µM.
Turning to `COc1ccc(C#N)cc1-c1cc(C)ncc1C(=O)Nc1nc2c(s1)CN(C(=O)C1CCCC1)C2`, the half-inhibitory concentration (IC50) is 0.5 to 2 µM in the test with DLD1 BRCA2 (−/−) cells (setting [2]), 1 to 15 nM in test [1] and at least 10 µM in the test on DLD1 WT cells (setting [2]).
`COc1cnc(Cl)cc1-c1cc(C)ncc1C(=O)Nc1nc2c(s1)CN(C(=O)c1cc(C(C)C)n(C)n1)C2` [Example 95, 2′-chloro-N-(5-(5-isopropyl-1-methyl-1H-pyrazole-3-carbonyl)-5,6-dihydro-4H-pyrrolo[3,4-d]thiazol-2-yl)-5′-methoxy-6-methyl-[4,4′-bipyridine]-3-carboxamide]: the IC50 was 0.001 to 0.1 µM with DLD1 BRCA2 (−/−) cells (setting [2]), 1 to 15 nM in test [1] and at least 10 µM with DLD1 WT cells (setting [2]).
With `COc1cnc(Cl)cc1-c1cc(C)ncc1C(=O)Nc1nc2c(s1)C(C)N(C(=O)c1ccc(C(F)(F)F)nc1OC)C2` (stereo not drawn) [Example 1040, 2′-chloro-5′-methoxy-N-(S-(2-methoxy-6-(trifluoromethyl)nicotinoyl)-6-methyl-5,6-dihydro-4H-pyrrolo[3,4-d]thiazol-2-yl)-6-methyl-[4,4′-bipyridine]-3-carboxamide], the half-inhibitory concentration (IC50) with DLD1 BRCA2 (−/−) cells (setting [3]) is 0.001 to 0.1 µM; in test [1] (POLθ ATPase, ADP-Glo), 1 to 15 nM; in the test with DLD1 WT cells (setting [3]), at least 10 µM.
Turning to `COc1cn2cncc2cc1-c1cc(C)ncc1C(=O)Nc1nc2c(s1)CN(C(=O)c1c(Cl)cnn1C)C2`, the results for the 50% inhibitory concentration (IC50) (with DLD1 BRCA2 (−/−) cells (setting [2]); in test [1]; with DLD1 WT cells (setting [2])) were 0.1 to 0.25 µM, 1 to 15 nM and at least 10 µM, respectively.
`COc1cnc(Cl)cc1-c1cc(C)ncc1C(=O)Nc1nc2c(s1)CN(C(=O)c1ccc(C(F)(F)F)cn1)C2` [Example 132]: the values for the IC50 (in the test on DLD1 BRCA2 (−/−) cells (setting [2]); in test [1]; in the test with DLD1 WT cells (setting [2])) were 0.001 to 0.1 µM, 1 to 15 nM and 5 to 10 µM, respectively.
As to `COc1cnc(Cl)cc1-c1cc(C)ncc1C(=O)Nc1nc2c(s1)CN(C(=O)c1ccn(C)n1)C2` [Example 197], the IC50 with DLD1 BRCA2 (−/−) cells (setting [2]) was 0.25 to 0.5 µM; in test [1], 1 to 15 nM; with DLD1 WT cells (setting [2]), at least 10 µM.
On to `COc1cnc(Cl)cc1-c1cc(C)ncc1C(=O)Nc1nc2c(s1)C(C)N(C(=O)c1ccc(C(F)(F)F)nc1OC)C2` (single isomer, unassigned) [Example 1046, (R or S)-2′-chloro-5′-methoxy-N-(5-(2-methoxy-6-(trifluoromethyl)nicotinoyl)-6-methyl-5,6-dihydro-4H-pyrrolo[3,4-d]thiazol-2-yl)-6-methyl-[4,4′-bipyridine]-3-carboxamide], for which the IC50 is 0.001 to 0.1 µM in the test on DLD1 BRCA2 (−/−) cells (setting [3]); 1 to 15 nM in test [1] (POLθ ATPase, ADP-Glo); at least 10 µM in the test with DLD1 WT cells (setting [3]).
`COc1cnc(Cl)cc1-c1cc(C)ncc1C(=O)Nc1nc2c(s1)CN(C(=O)c1ccc(OC)c(C(F)F)n1)C2`: the half-inhibitory concentration (IC50) in the test with DLD1 BRCA2 (−/−) cells (setting [3]) was 0.001 to 0.1 µM; in test [1] (POLθ ATPase, ADP-Glo) it was 1 to 15 nM; with DLD1 WT cells (setting [3]) it was at least 10 µM.
For `COc1cc(Cl)nc(C(=O)N2Cc3nc(NC(=O)c4cnc(C)cc4-c4cc(Cl)ncc4OC)sc3C2)c1`, in that order: 0.001 to 0.1 µM, 1 to 15 nM and at least 10 µM.
In the case of `COc1cnc(Cl)cc1-c1cc(C)ncc1C(=O)Nc1nc2c(s1)CN(C(=O)c1c(Cl)cnn1C(C)C)C2`, the results for the IC50 (in the test with DLD1 BRCA2 (−/−) cells (setting [2]); in test [1]; in the test with DLD1 WT cells (setting [2])) were 0.001 to 0.1 µM, 1 to 15 nM and at least 10 µM, respectively.
Regarding `COc1ccccc1-c1cc(C)ncc1C(=O)Nc1nc2c(s1)CN(CC1CCCCC1)CC2`, the 50% inhibitory concentration (IC50) in the test with DLD1 BRCA2 (−/−) cells (setting [2]) is at least 2 µM; in test [1] it was at least 900 nM; in the test with DLD1 WT cells (setting [2]), at least 10 µM.
For the compound `COc1cnc(Cl)cc1-c1cc(C)ncc1C(=O)Nc1nc2c(s1)CN(C(=O)c1ccc(OC(F)F)cn1)C2` [Example 93, 2′-chloro-N-(5-(5-(difluoromethoxy)picolinoyl)-5,6-dihydro-4H-pyrrolo[3,4-d]thiazol-2-yl)-5′-methoxy-6-methyl-[4,4′-bipyridine]-3-carboxamide], the IC50 in the test with DLD1 BRCA2 (−/−) cells (setting [2]) fell in the range of 0.001 to 0.1 µM; in test [1] it was 1 to 15 nM; with DLD1 WT cells (setting [2]), 0.001 to 0.5 µM.
Regarding `COc1nc(C(F)(F)F)ccc1C(=O)N1Cc2nc(NC(=O)c3cnc(C)cc3-c3cc(C#N)cnc3OC)sc2C1` [Example 1048, 5-cyano-2-methoxy-N-(5-(2-methoxy-6-(trifluoromethyl)nicotinoyl)-5,6-dihydro-4H-pyrrolo[3,4-d]thiazol-2-yl)-6′-methyl-[3,4′-bipyridine]-3′-carboxamide], the IC50 with DLD1 BRCA2 (−/−) cells (setting [3]) is 0.001 to 0.1 µM; in the test with DLD1 WT cells (setting [3]), at least 10 µM.
Take `COc1cn2cncc2cc1-c1cc(C)ncc1C(=O)Nc1nc2c(s1)CN(C(=O)c1ccc(C(F)(F)F)nc1OC)C2` [Example 1004]: the IC50 in the test with DLD1 BRCA2 (−/−) cells (setting [3]) is 0.001 to 0.1 µM; in the test on DLD1 WT cells (setting [3]), at least 10 µM.
As to `COc1cnc(Cl)cc1-c1cc(C)ncc1C(=O)Nc1nc2c(s1)CN(C(=O)c1nc(OC)c(C(F)F)cc1C)C2`, the IC50 with DLD1 BRCA2 (−/−) cells (setting [3]) is 0.001 to 0.1 µM; with DLD1 WT cells (setting [3]) it was at least 10 µM.
Take `Cc1cc(-c2cc(Cl)ncc2OC(F)F)c(C(=O)Nc2nc3c(s2)CN(C(=O)c2nc(C(F)F)ccc2Cl)C3)cn1` [Example 922, 2′-chloro-N-(S-(3-chloro-6-(difluoromethyl)picolinoyl)-5,6-dihydro-4H-pyrrolo[3,4-d]thiazol-2-yl)-5′-(difluoromethoxy)-6-methyl-[4,4′-bipyridine]-3-carboxamide]: the values for the concentration for half-maximal inhibition (IC50) with DLD1 BRCA2 (−/−) cells (setting [3]) and in the test on DLD1 WT cells (setting [3]) were 0.001 to 0.1 µM and at least 10 µM, respectively.
`COc1cnc(Cl)cc1-c1cc(C)ncc1C(=O)Nc1nc2c(s1)CN(C(=O)c1ccn3nccc3n1)C2`: the IC50 was 0.001 to 0.1 µM in the test with DLD1 BRCA2 (−/−) cells (setting [3]) and at least 10 µM with DLD1 WT cells (setting [3]).
Consider `COc1nc(C(F)(F)F)ccc1C(=O)N1Cc2nc(NC(=O)c3cnc(C)cc3-c3cc(Cl)cnc3OC)sc2C1` [Example 1003, 5-chloro-2-methoxy-N-(5-(2-methoxy-6-(trifluoromethyl)nicotinoyl)-5,6-dihydro-4H-pyrrolo[3,4-d]thiazol-2-yl)-6′-methyl-[3,4′-bipyridine]-3′-carboxamide], for which the IC50 with DLD1 BRCA2 (−/−) cells (setting [3]) is 0.001 to 0.1 µM; with DLD1 WT cells (setting [3]) it was at least 10 µM.
On to `COc1cnc(Cl)cc1-c1cc(C)ncc1C(=O)Nc1nc2c(s1)CN(C(=O)c1ccc(C#N)c(C)n1)C2`, for which the IC50 with DLD1 BRCA2 (−/−) cells (setting [3]) was 0.001 to 0.1 µM; in the test on DLD1 WT cells (setting [3]), at least 10 µM.
Regarding `COc1cnc(Cl)cc1-c1cc(C)ncc1C(=O)Nc1nc2c(s1)CN(C(=O)c1cnc(OC(F)(F)F)cc1C)C2` [Example 1009, 2′-chloro-5′-methoxy-6-methyl-N-(5-(4-methyl-6-(trifluoromethoxy)nicotinoyl)-5,6-dihydro-4H-pyrrolo[3,4-d]thiazol-2-yl)-[4,4′-bipyridine]-3-carboxamide], the half-maximal inhibitory concentration (IC50) was 0.001 to 0.1 µM in the test with DLD1 BRCA2 (−/−) cells (setting [3]) and at least 10 µM in the test on DLD1 WT cells (setting [3]).
For `COc1cnc(Cl)cc1-c1cc(C)ncc1C(=O)Nc1nc2c(s1)CN(C(=O)c1nccc(C(F)(F)F)c1C)C2` [Example 951, 2′-chloro-5′-methoxy-6-methyl-N-(5-(3-methyl-4-(trifluoromethyl)picolinoyl)-5,6-dihydro-4H-pyrrolo[3,4-d]thiazol-2-yl)-[4,4′-bipyridine]-3-carboxamide], in that order: 0.001 to 0.1 µM and at least 10 µM.
For `COc1cnc(Cl)cc1-c1cc(C)ncc1C(=O)Nc1nc2c(s1)CN(C(=O)c1ncc(C(F)F)c(OC)n1)C2` [Example 907, 2′-chloro-N-(5-(5-(difluoromethyl)-4-methoxypyrimidine-2-carbonyl)-5,6-dihydro-4H-pyrrolo[3,4-d]thiazol-2-yl)-5′-methoxy-6-methyl-[4,4′-bipyridine]-3-carboxamide], in that order: 0.001 to 0.1 µM and at least 10 µM.
Turning to `COc1cnc(Cl)cc1-c1cc(C)ncc1C(=O)Nc1nc2c(s1)CN(C(=O)c1nc(C)c(C(F)F)cc1F)C2` [Example 621], the IC50 with DLD1 BRCA2 (−/−) cells (setting [3]) is 0.001 to 0.1 µM; in the test on DLD1 WT cells (setting [3]), at least 10 µM.
For `COc1cnc(Cl)cc1-c1cc(C)ncc1C(=O)Nc1nc2c(s1)CN(C(=O)c1ncc(C(F)(F)F)c(C)c1C)C2`, in that order: 0.001 to 0.1 µM and at least 10 µM.
